Broadly, the pIC50 is the negative decadic logarithm of the IC50, by convention in mol/L. Low values mean a large IC50, high ones a small IC50.

pIC50: −log10 of the molar value.

For assay [1], the system named is pERK1/2(THR202/TYR204) level in SW620 cell line. The experiment in a line: KRAS G12V pERK assay in SW620 cells (HTRF). Conditions: Homo sapiens, SW-620, Table 4, 2 hrs compound treatment. The format is cell-based. The method, then:
SW620 cell line was used in this study. Cells were maintained in RPMI 1640 supplemented with 10% fetal bovine serum (Thermo Fisher), 50 units/mL penicillin and streptomycin (Thermo Fisher) and kept at 37° C. in a humidified atmosphere of 5% CO2 in air. Cells were reinstated from frozen stocks that were laid down within 30 passages from the original cells purchased. 40000 cells per well were seeded into a 96-well plate and incubated overnight. Cells were treated with a 10-point dilution series. The final compound concentration is from 0 to 10 μM. After 2 hrs compound treatment, cells were lysed, and the pERK1/2(THR202/TYR204) level in the cell lysates was detected by HTRF kit (Cisbio). In brief, a total of 16 μL of cell lysate from each well of a 96-well plate was transferred to a 384-well white assay plate. Lysate from each well was incubated with 2 μL of Eu3+-cryptate (donor) labeled anti-phospho-ERK1/2 and 2 μL of D)2 (acceptor) labeled anti-phospho-ERK1/2 antibodies (Cisbio) overnight in dark at room temperature. When donor and acceptor are in close proximity, excitation of the donor with laser triggers a Fluorescence Resonance Energy Transfer (FRET) towards the acceptor, which in turn fluoresces at 655 nm wavelength. FRET signals were measured using a PHERAstar FSX reader (BMG Labtech). IC50 determination was performed by fitting the curve of percent inhibition versus the log of the inhibitor concentration using Dotmatics.

Assay [2] has as its target GST-tagged GDP-loaded KRAS G12V (amino acids 1-169) (Homo sapiens, UniProt P01116, G12V). Briefly: KRAS G12V probe displacement assay (TR-FRET). The format is binding. To be noted: Table 4; KRAS G12V 2 nM, biotinylated probe 2 2.5 nM. The method, then:
Plates are incubated at 24 °C for 1 hr. […] After 1 hr incubation at 24° C.

GST-tagged GDP-loaded KRAS G12V (amino acids 1-169), sequence (P01116 1-169 isoform P01116-2 G12V): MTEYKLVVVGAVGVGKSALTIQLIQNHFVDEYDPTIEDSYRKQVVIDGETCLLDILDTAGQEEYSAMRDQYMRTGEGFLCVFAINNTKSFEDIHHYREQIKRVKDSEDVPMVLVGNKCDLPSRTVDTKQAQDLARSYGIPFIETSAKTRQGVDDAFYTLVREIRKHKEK

For `CCc1c(F)ccc2cc(O)cc(-c3nc4c5c(nc(OC[C@@]67CCCN6C[C@H](F)C7)nc5c3F)N(C)C(C)CCO4)c12` (stereo partly drawn) [Example 16, 5-ethyl-6-fluoro-4-(4-fluoro-2-(((2R,7aS)-2-fluorotetrahydro-1H-pyrrolizin-7a(5H)-yl)methoxy)-10,11-dimethyl-8,9,10,11-tetrahydro-7-oxa-1,3,6,11-tetraazacycloocta[de]naphthalen-5-yl)naphthalen-2-ol], the results for the pIC50 in assay [1] and in assay [2] were 7.30 and 8.85, respectively.

On to `CN1c2nc(OC[C@@]34CCCN3C[C@H](F)C4)nc3c(F)c(-c4cc(N)cc(Cl)c4C(F)(F)F)nc(c23)O[C@H]2CCOC[C@@H]21` [Example 50, 3-chloro-5-((7aS,11aS)-4-fluoro-2-(((2R,7aS)-2-fluorotetrahydro-1H-pyrrolizin-7a(5H)-yl)methoxy)-12-methyl-7a, 8,11a, 12-tetrahydro-9H, 11H-7,10-dioxa-1,3,6,12-tetraazapleiaden-5-yl)-4-(trifluoromethyl)aniline], for which the values for the pIC50 in assay [1] and in assay [2] were 7.55 and 9.21, respectively.

As to `CN1c2nc(OCC3(C)CCC4COCCN4C3)nc3c(F)c(-c4cc(N)cc(Cl)c4C(F)(F)F)nc(c23)O[C@H]2COCC[C@@H]21` (stereo partly drawn) [Example 60, 3-chloro-5-((7aR,11aS)-4-fluoro-12-methyl-2-((7-methyloctahydropyrido[2,1-c][1,4]oxazin-7-yl)methoxy)-7a, 8,10,11,11a, 12-hexahydro-7,9-dioxa-1,3,6,12-tetraazapleiaden-5-yl)-4-(trifluoromethyl)aniline], the pIC50 in assay [1] is 7.70; in assay [2], 9.20.

As to `CC1COc2nc(-c3cc(N)cc(Cl)c3C(F)(F)F)c(F)c3nc(OC[C@@]45CCCN4C[C@H](F)C5)nc(c23)N1C` (stereo partly drawn) [Example 22, 3-chloro-5-(4-fluoro-2-(((2R,7aS)-2-fluorotetrahydro-1H-pyrrolizin-7a(5H)-yl)methoxy)-9,10-dimethyl-9,10-dihydro-8H-7-oxa-1,3,6,10-tetraazacyclohepta[de]naphthalen-5-yl)-4-(trifluoromethyl)aniline], the pIC50 in assay [1] was 6.52; in assay [2], 8.17.

`Nc1cc(Cl)c(C(F)(F)F)c(-c2nc3c4c(nc(OC[C@@]56CCCN5C[C@H](F)C6)nc4c2F)N(C2CC2)CCCO3)c1` [Example 4, 3-chloro-5-(11-cyclopropyl-4-fluoro-2-(((2R,7aS)-2-fluorotetrahydro-1H-pyrrolizin-7a(5H)-yl)methoxy)-8,9,10,11-tetrahydro-7-oxa-1,3,6,11-tetraazacycloocta[de]naphthalen-5-yl)-4-(trifluoromethyl)aniline]: the pIC50 in assay [1] was 6.26; in assay [2], 8.09.

Regarding `Nc1cc(Cl)c(C(F)(F)F)c(-c2nc3c4c(nc(OC[C@@]56CCCN5C[C@H](F)C6)nc4c2F)N(C2CC2)CCO3)c1` [Example 8, 3-chloro-5-(10-cyclopropyl-4-fluoro-2-(((2R,7aS)-2-fluorotetrahydro-1H-pyrrolizin-7a(5H)-yl)methoxy)-9,10-dihydro-8H-7-oxa-1,3,6,10-tetraazacyclohepta[de]naphthalen-5-yl)-4-(trifluoromethyl)aniline], the pIC50 in assay [1] was 6.15; in assay [2], 8.00.

With `Cc1cc(N)cc(-c2nc3c4c(nc(OC[C@@]56CCCN5C[C@H](F)C6)nc4c2F)N(C)CCO3)c1C(F)(F)F` [Example 3, 3-(4-fluoro-2-(((2R,7aS)-2-fluorotetrahydro-1H-pyrrolizin-7a(5H)-yl)methoxy)-10-methyl-9,10-dihydro-8H-7-oxa-1,3,6,10-tetraazacyclohepta[de]naphthalen-5-yl)-5-methyl-4-(trifluoromethyl)aniline], the pIC50 in assay [1] was 6.40; in assay [2], 7.82.

On to `CCN1c2nc(OCC34CCCN3CC(F)C4)nc3c(F)c(-c4cc(N)cc(Cl)c4C(F)(F)F)nc(c23)OCCC12CC2` [Example 55, 3-chloro-5-(11-ethyl-4-fluoro-2-(((2R,7aS)-2-fluorotetrahydro-1H-pyrrolizin-7a(5H)-yl)methoxy)-8,9-dihydro-11H-7-oxa-1,3,6,11-tetraazaspiro[cycloocta[de]naphthalene-10,1′-cyclopropan]-1(11a), 2,3a, 3 al(6a), 5-pentaen-5-yl)-4-(trifluoromethyl)aniline], for which the pIC50 in assay [1] is 7.39; in assay [2], 9.24.

Take `CN1CC2(COC2)COc2nc(-c3cc(N)cc(Cl)c3C(F)(F)F)c(F)c3nc(OC[C@@]45CCCN4C[C@H](F)C5)nc1c23` [Example 11, 3-chloro-5-(4-fluoro-2-(((2R,7aS)-2-fluorotetrahydro-1H-pyrrolizin-7a(5H)-yl)methoxy)-11-methyl-10,11-dihydro-8H-7-oxa-1,3,6,11-tetraazaspiro[cycloocta[de]naphthalene-9,3′-oxetan]-1(11a), 2,3a, 3 al(6a), 5-pentaen-5-yl)-4-(trifluoromethyl)aniline]: the pIC50 in assay [1] is 6.20; in assay [2], 7.80.

For the compound `CN1c2nc(OC[C@@]34CCCN3C[C@H](F)C4)nc3c(F)c(-c4cc(N)cc(Cl)c4C(F)(F)F)nc(c23)OC[C@H]2CCC[C@H]21` [Example 52, 3-chloro-5-((8aS,11aR)-4-fluoro-2-(((2R,7aS)-2-fluorotetrahydro-1H-pyrrolizin-7a(5H)-yl)methoxy)-12-methyl-8a, 9,10,11,11a, 12-hexahydro-8H-7-oxa-1,3,6,12-tetraazacyclopenta[5,6]cycloocta[1,2,3-de]naphthalen-5-yl)-4-(trifluoromethyl)aniline], the pIC50 in assay [1] is 6.80; in assay [2], 8.19.

Turning to `C[C@@H]1CCOc2c(Cl)c(-c3ccc(F)c4sc(N)c(C#N)c34)c(F)c3nc(OC[C@@]45CCCN4C[C@H](F)C5)nc(c23)N1C` [Example 19, 2-amino-4-((R)-9-chloro-11-fluoro-2-(((2R,7aS)-2-fluorotetrahydro-1H-pyrrolizin-7a(5H)-yl)methoxy)-4,5-dimethyl-4,5,6,7-tetrahydro-[1,5]oxazocino[4,3,2-de]quinazolin-10-yl)-7-fluorobenzo[b]thiophene-3-carbonitrile], the pIC50 is 7.66 in assay [1] and 9.19 in assay [2].

For the compound `C#Cc1c(F)ccc2cc(O)cc(-c3nc4c5c(nc(OC[C@@]67CCCN6C[C@H](F)C7)nc5c3F)N(C3CCC3)CCCO4)c12` [Example 13, 4-(11-cyclobutyl-4-fluoro-2-(((2R,7aS)-2-fluorotetrahydro-1H-pyrrolizin-7a(5H)-yl)methoxy)-8,9,10,11-tetrahydro-7-oxa-1,3,6,11-tetraazacycloocta[de]naphthalen-5-yl)-5-ethynyl-6-fluoronaphthalen-2-ol], the pIC50 in assay [1] was 6.85; in assay [2], 8.85.

`CC1CCOc2nc(-c3cc(N)cc(Cl)c3C(F)(F)F)c(F)c3nc(OC[C@@]45CCCN4C[C@H](F)C5)nc(c23)N1C` (stereo partly drawn) [Example 6, 3-chloro-5-(4-fluoro-2-(((2R,7aS)-2-fluorotetrahydro-1H-pyrrolizin-7a(5H)-yl)methoxy)-10,11-dimethyl-8,9,10,11-tetrahydro-7-oxa-1,3,6,11-tetraazacycloocta[de]naphthalen-5-yl)-4-(trifluoromethyl)aniline]: the pIC50 in assay [1] was 7.20; in assay [2], 8.74.

Turning to `CN1c2nc(OC[C@@]34CCCN3C[C@H](F)C4)nc3c(F)c(-c4cc(N)cc(Cl)c4C(F)(F)F)nc(c23)OCC12CC2` [Example 29, 3-chloro-5-(4-fluoro-2-(((2R,7aS)-2-fluorotetrahydro-1H-pyrrolizin-7a(5H)-yl)methoxy)-10-methyl-8H, 10H-7-oxa-1,3,6,10-tetraazaspiro[cyclohepta[de]naphthalene-9,1′-cyclopropan]-1(10a), 2,3a, 3 al(6a), 5-pentaen-5-yl)-4-(trifluoromethyl)aniline], the pIC50 in assay [1] is 7.25; in assay [2], 9.02.

As to `CC1CN(C)c2nc(OC[C@@]34CCCN3C[C@H](F)C4)nc3c(F)c(-c4cc(N)cc(Cl)c4C(F)(F)F)nc(c23)O1` (stereo partly drawn) [Example 12, 3-chloro-5-(4-fluoro-2-(((2R,7aS)-2-fluorotetrahydro-1H-pyrrolizin-7a(5H)-yl)methoxy)-8,10-dimethyl-9,10-dihydro-8H-7-oxa-1,3,6,10-tetraazacyclohepta[de]naphthalen-5-yl)-4-(trifluoromethyl)aniline], the values for the pIC50 in assay [1] and in assay [2] were 6.82 and 8.49, respectively.

Turning to `CC1COc2nc(-c3cc(N)cc(Cl)c3C(F)(F)F)c(F)c3nc(OC[C@@]45CCCN4C[C@H](F)C5)nc(c23)N(C)C1` (stereo partly drawn) [Example 15, 3-chloro-5-(4-fluoro-2-(((2R,7aS)-2-fluorotetrahydro-1H-pyrrolizin-7a(5H)-yl)methoxy)-9,11-dimethyl-8,9,10,11-tetrahydro-7-oxa-1,3,6,11 tetraazacycloocta[de]naphthalen-5-yl)-4-(trifluoromethyl)aniline], the pIC50 in assay [1] is 6.43; in assay [2], 8.07.

These data come from patent US20240262848A1, “HETEROCYCLIC COMPOUNDS, COMPOSITIONS THEREOF, AND METHODS OF TREATMENT THEREWITH” (BeiGene, Ltd., priority 2022, published 2024).
